Laboratory results: ChEMBL document CHEMBL5500372, “Novel natural osthole-inspired amphiphiles as membrane targeting antibacterials against methicillin-resistant Staphylococcus aureus (MRSA)” (Eur J Med Chem, 2024)
Activity calls are given as the source filed them. No cut-off for these calls is given here.

Experiments:
[1] = Toxicity in female KM mouse assessed as effect on histopathological abnormalities in lungs at 20 mg/kg, sc measured after 24 hrs by H and E staining based analysis; assay type: organism-based; settings: in vivo
Cell membrane [2] = assay: Induction of cytoplasmic membrane permeabilization in methicillin-resistant Staphylococcus aureus clinical isolate 16 assessed as increase in fluorescence intensity at 8 to 32 time MIC measured for 10 mins by SYTOX green dye based fluorescence analysis; assay type: cell membranes
Staphylococcus aureus [3] = assay: Antibacterial activity against methicillin-resistant Staphylococcus aureus clinical isolate 17 measured after 18 hrs by CLSI based broth microdilution method; assay type: functional
[4] = Toxicity in female KM mouse assessed as effect on lung at 20 mg/kg, sc measured after 24 hrs by H and E staining based analysis; assay type: organism-based; settings: in vivo
[5] = Toxicity in female KM mouse skin abscess model infected with methicillin-resistant Staphylococcus aureus clinical isolate 16 assessed as effect on liver at 5 to 10 mg/kg, sc measured after 24 hrs by H and E staining based analysis; assay type: organism-based; settings: in vivo, dose 5-10 mg/kg
[6] = Toxicity in female KM mouse assessed as effect on histopathological abnormalities in kidney at 20 mg/kg, sc measured after 24 hrs by H and E staining based analysis; assay type: organism-based; settings: in vivo
Staphylococcus aureus [7] = assay: Antibacterial activity against methicillin-resistant Staphylococcus aureus clinical isolate 13 measured after 18 hrs by CLSI based broth microdilution method; assay type: functional
Cell membrane [8] = assay: Induction of cell membrane disruption in methicillin-resistant Staphylococcus aureus clinical isolate 16 assessed as dead cells (Q1 region) at 64 ug/ml measured after 2 hrs by SYTO-9 and PI staining based flow cytometry analysis (reference value: 0%); assay type: cell membranes; settings: dose 64.0 µg/ml
[9] = Toxicity in female KM mouse assessed as effect on spleen at 20 mg/kg, sc measured after 24 hrs by H and E staining based analysis; assay type: organism-based; settings: in vivo
[10] = Cytotoxicity in human L02 cells assessed as survival rate at 16 ug/ml measured after 24 hrs by CCK-8 method relative to control; assay type: toxicity, cell-based; settings: at 16 µg/mL, read-out: Survival
Staphylococcus aureus [11] = assay: Antibacterial activity against methicillin-resistant Staphylococcus aureus clinical isolate 16 infected in female KM mouse skin abscess model assessed as effect on abscess in intradermal tissue at 5 mg/kg, sc measured after 24 hrs; assay type: functional, organism-based
Staphylococcus aureus [12] = assay: Antibacterial activity against methicillin-resistant Staphylococcus aureus clinical isolate 16 infected in female KM mouse skin abscess model assessed as reduction in inflammatory cells at 5 to 10 mg/kg, sc measured after 24 hrs by H and E staining based analysis; assay type: functional, organism-based; settings: dose 5-10 mg/kg
L02 = assay: Cytotoxicity in human L02 cells measured after 24 hrs by CCK-8 method; assay type: toxicity, cell-based; settings: l02, 24 h
Cell membrane [13] = assay: Induction of cytoplasmic membrane depolarization in methicillin-resistant Staphylococcus aureus clinical isolate 16 assessed as increase in fluorescence intensity at 8 to 32 time MIC measured for 10 mins by DiSC3-5 dye based fluorescence method
Staphylococcus aureus [14] = assay: Antibacterial activity against methicillin-resistant Staphylococcus aureus clinical isolate 16 infected in female KM mouse skin abscess model assessed as reduction in number of MRSA cells at 5 to 10 mg/kg, sc measured after 24 hrs; assay type: functional, organism-based; settings: dose 5-10 mg/kg
[15] = Toxicity in female KM mouse assessed as effect on albumin at upto 20 mg/kg, sc measured after 24 hrs by biochemical test; assay type: organism-based; settings: in vivo
Staphylococcus aureus [16] = assay: Antibacterial activity against Staphylococcus aureus ATCC 29213 at sub-MIC concentration measured after 20 passages by CLSI micro broth dilution method; assay type: functional, organism-based
Staphylococcus aureus [17] = assay: Antibacterial activity against methicillin-resistant Staphylococcus aureus clinical isolate 16 infected in female KM mouse skin abscess model assessed as effect on skin lesions at 10 mg/kg, sc measured after 24 hrs; assay type: functional, organism-based
[18] = Toxicity in female KM mouse assessed as animal death at 80 mg/kg, sc measured after 24 hrs; assay type: organism-based; settings: in vivo
[19] = Toxicity in female KM mouse assessed as redness in skin at 40 to 80 mg/kg, sc measured after 24 hrs; assay type: organism-based; settings: in vivo, dose 40-80 mg/kg
Cell membrane [20] = assay: Induction of cytoplasmic membrane permeabilization in methicillin-resistant Staphylococcus aureus clinical isolate 16 assessed as fold increase in fluorescence intensity at 32 time MIC measured after 35 mins by SYTOX green dye based fluorescence analysis
[21] = Toxicity in female KM mouse assessed as effect on histopathological abnormalities in liver at 20 mg/kg, sc measured after 24 hrs by H and E staining based analysis; assay type: organism-based; settings: in vivo
Cell membrane [22] = assay: Induction of cell membrane disruption in methicillin-resistant Staphylococcus aureus clinical isolate 16 assessed as intact cells (Q3 region) at 4 ug/ml measured after 2 hrs by SYTO-9 and PI staining based flow cytometry analysis (reference value: 96.0%); assay type: cell membranes; settings: dose 4.0 µg/ml
Staphylococcus aureus [23] = assay: Antibacterial activity against methicillin-resistant Staphylococcus aureus clinical isolate 16 measured after 18 hrs in presence of peptidoglycan by checkerboard broth dilution method; assay type: functional, organism-based
[24] = Toxicity in female KM mouse skin abscess model infected with methicillin-resistant Staphylococcus aureus clinical isolate 16 assessed as histological abnormalities in spleen at 5 to 10 mg/kg, sc measured after 24 hrs by H and E staining based analysis; assay type: organism-based; settings: in vivo, dose 5-10 mg/kg
[25] = Toxicity in female KM mouse assessed as effect on mean corpuscular volume at upto 20 mg/kg, sc measured after 24 hrs; assay type: organism-based; settings: in vivo
Staphylococcus aureus [26] = assay: Antibacterial activity against methicillin-resistant Staphylococcus aureus clinical isolate 16 infected in female KM mouse skin abscess model assessed as reduction in TNF-alpha level at 5 to 10 mg/kg, sc measured after 24 hrs by ELISA method; assay type: functional, organism-based; settings: dose 5-10 mg/kg
[27] = Toxicity in female KM mouse assessed as swelling in skin at 40 to 80 mg/kg, sc measured after 24 hrs; assay type: organism-based; settings: in vivo, dose 40-80 mg/kg
[28] = Toxicity in female KM mouse skin abscess model infected with methicillin-resistant Staphylococcus aureus clinical isolate 16 assessed as histological abnormalities in heart at 5 to 10 mg/kg, sc measured after 24 hrs by H and E staining based analysis; assay type: organism-based; settings: in vivo, dose 5-10 mg/kg
[29] = Toxicity in female KM mouse assessed as effect on histopathological abnormalities in back skin at 20 mg/kg, sc measured after 24 hrs by H and E staining based analysis; assay type: organism-based; settings: in vivo
Staphylococcus aureus [30] = assay: Antibacterial activity against methicillin-resistant Staphylococcus aureus clinical isolate 12 measured after 18 hrs by CLSI based broth microdilution method; assay type: functional
Cell membrane [31] = assay: Disruption of cell membrane in methicillin-resistant Staphylococcus aureus clinical isolate 16 assessed as increase in DNA leakage incubated for 4 hrs by microspectrophotometric analysis; assay type: cell membranes; settings: dose <= 8.0 µg/ml
Staphylococcus aureus [32] = assay: Antibacterial activity against methicillin-resistant Staphylococcus aureus clinical isolate 20 measured after 18 hrs by CLSI based broth microdilution method; assay type: functional
[33] = Toxicity in female KM mouse skin abscess model infected with methicillin-resistant Staphylococcus aureus clinical isolate 16 assessed as histological abnormalities in liver at 5 to 10 mg/kg, sc measured after 24 hrs by H and E staining based analysis; assay type: organism-based; settings: in vivo, dose 5-10 mg/kg
Cell membrane [34] = assay: Induction of cytoplasmic membrane depolarization in methicillin-resistant Staphylococcus aureus clinical isolate 16 assessed as fold increase in fluorescence intensity at 32 time MIC measured after 35 mins by DiSC3-5 dye based fluorescence method

CCCCCCNC(=O)C[N+](C)(C)CCCCCOc1ccc2ccc(=O)oc2c1CC=C(C)C.[Br-]
Activity [1]: Non-Toxic
Activity (Cell membrane [2]): Active
MIC (Staphylococcus aureus [3]): 1 µg/mL
Activity [4]: Non-Toxic
Activity [5]: Non-Toxic
Activity [6]: Non-Toxic
MIC (Staphylococcus aureus [7]): 2 µg/mL
Activity (Cell membrane [8]): 96.2%
Activity [9]: Non-Toxic
viability at 24 h, 16 ug/ml [10]: 60%
Activity (Staphylococcus aureus [11]): Active
Activity (Staphylococcus aureus [12]): Active
Activity (L02): Non-Toxic
Activity (Cell membrane [13]): Active
Activity (Staphylococcus aureus [14]): Active
Activity [15]: Non-Toxic
Activity (Staphylococcus aureus [16]): inactive
Activity (Staphylococcus aureus [17]): inactive
Activity [18]: Non-Toxic
Activity [19]: Toxic
fold change (FC) (Cell membrane [20]): 50
Activity [21]: Non-Toxic
Activity (Cell membrane [22]): 76.9%
Activity (Staphylococcus aureus [23]): Active
Activity [24]: Non-Toxic
Activity [25]: Non-Toxic
Activity (Staphylococcus aureus [26]): Active
Activity [27]: Toxic
Activity [28]: Non-Toxic
Activity [29]: Non-Toxic
MIC (Staphylococcus aureus [30]): 2 µg/mL
Activity (Cell membrane [31]): Dose-Dependent Effect
MIC (Staphylococcus aureus [32]): 2 µg/mL
Activity [33]: Non-Toxic
fold change (FC) (Cell membrane [34]): 5
